# Test system: rabbit skeletal myofibrils (fast skeletal myofibrils)
# Assay: Activation of fast skeletal myofibrils (PUMA assay, PK/LDH-coupled ATPase at pCa25)
# Format: biochemical
# Conditions: AC1.4 determined according to the procedure of Example 39; reported as class symbols
# Outline: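 ATPase activity of Triton-washed rabbit skeletal myofibrils, roughly 90% fast fibres, tracked by NADH loss at 340 nm through a PK/LDH-coupled ADP-regenerating system. Calcium set to 25% of maximal activity (pCa25), in PIPES 12 mM pH 6.8 with 2 mM MgCl2 and 1 mM DTT; AC1.4 reported.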
row,Mean AC1.4,Compound
1,A (A=<1 uM),CC(=O)Nc1n[nH]c2ccc(-c3ccc(NCC(C)(C)c4ccc(F)cc4)nn3)cc12 [N-[5-(6-{[2-(4-fluorophenyl)-2-methylpropyl]amino}pyridazin-3-yl)-1H-indazol-3-yl]acetamide]
2,B (B=1-10 uM),CC(=O)Nc1ccc(-c2ccc(NCC(C)(C)c3ccc(F)cc3)nn2)cn1 [N-[5-(6-{[2-(4-fluorophenyl)-2-methylpropyl]amino}pyridazin-3-yl)-2-pyridyl]acetamide]
3,A (A=<1 uM),CC(=O)Nc1nc2cc(-c3ccc(NCC(C)(C)c4ccc(F)cc4)nn3)ccc2[nH]1 [N-[6-(6-{[2-(4-fluorophenyl)-2-methylpropyl]amino}pyridazin-3-yl)benzimidazol-2-yl]acetamide]
4,D (D=>20 uM),COC(=O)NCc1ccc(NCC(C)(C)c2ccc(F)cc2)nn1 [N-[(6-{[2-(4-fluorophenyl)-2-methylpropyl]amino}pyridazin-3-yl)methyl]methoxycarboxamide]

row,Compound,Mean AC1.4
1,CC(C)(C)OC(=O)NCCCNC(=O)c1cccc(-c2ccc(NCC(C)(C)c3ccc(F)cc3)nn2)c1 [N-{3-[(tert-butoxy)carbonylamino]propyl}[3-(6-{[2-(4-fluorophenyl)-2-methylpropyl]amino}pyridazin-3-yl)phenyl]carboxamide],B (B=1-10 uM)

# Same assay, conditions: median AC1.4 reported as class; procedure of Example 39
row,Mean AC1.4,Compound
1,D (D=>20 uM),"NC(=O)Cc1nnc(NC(=O)c2ccc(NCC3(c4ncccc4F)CCC3)nn2)s1 [N-[5-(carbamoylmethyl)(1,3,4-thiadiazol-2-yl)][6-({[(3-fluoro(2-pyridyl))cyclobutyl]methyl}ami-no)pyridazin-3-yl]carboxamide]"
2,B (B=1-10 uM),O=C(NC1CNC1)c1cccc(-c2ccc(NC[C@]3(c4ncccc4F)C[C@H](F)C3)nn2)c1 [N-azetidin-3-yl{3-[6-({[3-fluoro-1-(3-fluoro(2-pyridyl))cyclobutyl]methyl}ami-no)pyridazin-3-yl]phenyl}carboxamide]
3,A (A=<1 uM),O=C(NC1CCC1)c1ccc(F)c(-c2ccc(NC[C@]3(c4ncccc4F)C[C@H](F)C3)nn2)c1 [N-cyclobutyl{4-fluoro-3-[6-({[3-fluoro-1-(3-fluoro(2-pyridyl))cyclobutyl]methyl}ami-no)pyridazin-3-yl]phenyl}carboxamide]
4,B (B=1-10 uM),O=C(NC1CC1)c1cccc(-c2ccc(NC[C@]3(c4ncccc4F)C[C@H](F)C3)nn2)c1 [N-cyclopropyl{3-[6-({[3-fluoro-1-(3-fluoro(2-pyridyl))cyclobutyl]methyl}ami-no)pyridazin-3-yl]phenyl}carboxamide]
5,A (A=<1 uM),O=C(NC1CC1)c1ccc(F)c(-c2ccc(NC[C@]3(c4ncccc4F)C[C@H](F)C3)nn2)c1 [N-cyclopropyl{4-fluoro-3-[6-({[3-fluoro-1-(3-fluoro(2-pyridyl))cyclobutyl]methyl}ami-no)pyridazin-3-yl]phenyl}carboxamide]
6,C (C=10-20 uM),CCNC(=O)c1cc(-c2ccc(NC[C@]3(c4ncccc4F)C[C@H](F)C3)nn2)ccc1F [N-ethyl{2-fluoro-5-[6-({[3-fluoro-1-(3-fluoro(2-pyridyl))cyclobutyl]methyl}ami-no)pyridazin-3-yl]phenyl}carboxamide]
7,B (B=1-10 uM),CCNC(=O)c1ccc(F)c(-c2ccc(NC[C@]3(c4ncccc4F)C[C@H](F)C3)nn2)c1 [N-ethyl{4-fluoro-3-[6-({[3-fluoro-1-(3-fluoro(2-pyridyl))cyclobutyl]methyl}ami-no)pyridazin-3-yl]phenyl}carboxamide]
8,D (D=>20 uM),"COC(=O)NC1CCc2sc(-c3ccc(NCC4(c5ncccc5F)CCC4)nn3)nc21 (stereo not shown) [N-{2-[6-({[(3-fluoro(2-pyridyl))cyclobutyl]methyl}ami-no)pyridazin-3-yl](4,5,6-trihydrocyclopenta[2,3-d]1,3-thiazol-4-yl)}methoxycarboxamide]"

# From US10076519B2 (CYTOKINETICS, INC., priority 2010, dated 2018)
